We go through 28 compounds from patent publication US20120115845A1, “THERAPEUTIC AGENTS” (priority 2007, published 2012).

Test [1] addresses T1, human GHS receptor (Homo sapiens, UniProt Q92847). As to the kind of experiment: Ghrelin IP1 agonist assay (IP1 HTRF). Format: cell-based. The arrangement: expressed in transfected cells; host or cells: HEK293s. The note with it: for Emax: 2 h, agonist effect as % maximal effect of GHRP-6 (5 μM), read-out: h IP1 ag %; for EC50: HEK293s cells stably expressing human GHS receptor, 2 hours at 37° C., read-out: h IP1 ag EC50. Summed up: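 Cells: HEK293s stably expressing human GHS receptor, in stimulation buffer containing 0.02% fatty acid free BSA.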
(TR-FRET usually uses a lanthanide donor and a delayed reading to cut background.)

The target in test [2] is T1, human GHS receptor. As to the kind of experiment: h bind IC50 (binding assay, Table 1). The settings on record: human receptor; Table 1.

T1 sequence (Q92847 whole entry): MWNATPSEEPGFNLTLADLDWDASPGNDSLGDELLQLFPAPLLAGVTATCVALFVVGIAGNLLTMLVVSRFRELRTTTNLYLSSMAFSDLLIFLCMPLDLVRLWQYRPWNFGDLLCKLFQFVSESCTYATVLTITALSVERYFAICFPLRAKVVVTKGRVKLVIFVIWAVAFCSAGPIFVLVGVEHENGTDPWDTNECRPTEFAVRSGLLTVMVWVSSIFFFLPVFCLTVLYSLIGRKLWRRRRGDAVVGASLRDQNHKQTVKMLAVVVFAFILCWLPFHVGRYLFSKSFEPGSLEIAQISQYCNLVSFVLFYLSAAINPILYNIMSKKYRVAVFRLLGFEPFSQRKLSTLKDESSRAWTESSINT

On to `CCN(CC)CCCS(=O)(=O)c1ccc2nc(NC(=O)NC(=O)c3ccccc3Cl)sc2c1` [Example 153, 2-Chloro-N-[[6-(3-diethylaminopropylsulfonyl)benzothiazol-2-yl]carbamoyl]benzamide], for which, on human GHS receptor [1], the Emax stood at 47% and the EC50 is 10.9 nM. Also, the IC50 on human GHS receptor [2] is 12.5 nM.
`CN1CCN(CCCS(=O)(=O)c2ccc3nc(NC(=O)NC(=O)c4ccccc4Cl)sc3c2)CC1` [Example 155, 2-Chloro-N-[[6-[3-(4-methylpiperazin-1-yl)propylsulfonyl]benzothiazol-2-yl]carbamoyl]benzamide]: on human GHS receptor [1], the Emax was determined as 55.2% and the EC50 was 2.25 nM. In addition, at human GHS receptor [2], the IC50 was 1.2 nM.
The like results for `O=C(NC(=O)c1ccccc1Cl)Nc1nc2ccc(S(=O)(=O)CCCNCCO)cc2s1` [Example 159, 2-Chloro-N-[[6-[3-(2-hydroxyethylamino)propylsulfonyl]benzothiazol-2-yl]carbamoyl]benzamide] were, in that order, 51.6%, 17.6 nM and 8.5 nM.
Take `CS(=O)(=O)c1ccc2nc(NC(=O)NC(=O)c3cc(Br)ccc3Cl)sc2c1` [Example 161, 5-Bromo-2-chloro-N-[(6-methylsulfonylbenzothiazol-2-yl)carbamoyl]benzamide]: at human GHS receptor [1], the Emax was found to be 56% and the half-maximal effective concentration (EC50) worked out at 6.18 nM. In addition, the IC50 on human GHS receptor [2] was found to be 105 nM.
Regarding `CC(C)N1CCC(S(=O)(=O)c2ccc3nc(NC(=O)NC(=O)c4ccccc4Cl)sc3c2)C1` (stereo not drawn) [Example 162, 2-Chloro-N-[[6-(1-propan-2-ylpyrrolidin-3-yl)sulfonylbenzothiazol-2-yl]carbamoyl]benzamide], at human GHS receptor [1], the Emax was 48.3% and the EC50 amounted to 11.4 nM. This compound registered an IC50 at human GHS receptor [2] of 296 nM.
With `CCN1CCC[C@@H]1CS(=O)(=O)c1ccc2nc(NC(=O)NC(=O)c3ccccc3Cl)sc2c1` [Example 164, 2-Chloro-N-[[6-[[(2R)-1-ethylpyrrolidin-2-yl]methylsulfonyl]benzothiazol-2-yl]carbamoyl]benzamide], on human GHS receptor [1], the Emax came out at 43.9% and the EC50 came out at 70.2 nM. The IC50 at human GHS receptor [2] turned out to be 174 nM.
For the compound `O=C(NC(=O)c1ccccc1Cl)Nc1nc2ccc(S(=O)(=O)C[C@H]3CCCN3)cc2s1` [Example 165, 2-Chloro-N-[[6-[[(2R)-pyrrolidin-2-yl]methylsulfonyl]benzothiazol-2-yl]carbamoyl]benzamide], at human GHS receptor [1], the Emax came to 49.4% and the EC50 came to 67.1 nM. On human GHS receptor [2], this compound showed an IC50 of 127 nM.
The like results for `CN1CCCC(S(=O)(=O)c2ccc3nc(NC(=O)NC(=O)c4ccccc4Cl)sc3c2)C1` (stereo not drawn) [Example 166, 2-Chloro-N-[[6-[(1-methyl-3-piperidyl)sulfonyl]benzothiazol-2-yl]carbamoyl]benzamide] were, in that order, 53.9%, 46.4 nM and 280 nM.
Take `CC(C)N1CCC[C@@H]1CS(=O)(=O)c1ccc2nc(NC(=O)NC(=O)c3ccccc3Cl)sc2c1` [Example 168, 2-Chloro-N-[[6-[[(2R)-1-propan-2-ylpyrrolidin-2-yl]methylsulfonyl]benzothiazol-2-yl]carbamoyl]benzamide]: on human GHS receptor [1], the Emax was 37% and the EC50 amounted to 4.13 nM. At human GHS receptor [2], this compound returned an IC50 of 20.6 nM.
Take `CS(=O)(=O)c1ccc2nc(NC(=O)NC(=O)c3ccccc3C(F)(F)F)sc2c1` [Example 170, N-[(6-Methylsulfonylbenzothiazol-2-yl)carbamoyl]-2-(trifluoromethyl)benzamide]: on human GHS receptor [1], the Emax amounted to 9.73% and the EC50 worked out at 75.7 nM. Further, the IC50 at human GHS receptor [2] came out at 831 nM.
As to `O=C(NC(=O)c1ccccc1Cl)Nc1nc2ccc(S(=O)(=O)[C@H]3CCNC3)cc2s1` [Example 171, 2-Chloro-N-[[6-[(3S)-pyrrolidin-3-yl]sulfonylbenzothiazol-2-yl]carbamoyl]benzamide], at human GHS receptor [1], the Emax came to 44% and the EC50 turned out to be 18.6 nM. This compound had an IC50 at human GHS receptor [2] of 296 nM.
For `O=C(NC(=O)c1ccccc1Cl)Nc1nc2ccc(S(=O)(=O)[C@@H]3CCNC3)cc2s1` [Example 172, 2-Chloro-N-[[6-[(3R)-pyrrolidin-3-yl]sulfonylbenzothiazol-2-yl]carbamoyl]benzamide], on human GHS receptor [1], the Emax amounted to 44.4% and the EC50 turned out to be 7.31 nM. Also, the IC50 on human GHS receptor [2] amounted to 28.3 nM.
Regarding `CCN1CCC(S(=O)(=O)c2ccc3nc(NC(=O)NC(=O)c4ccccc4Cl)sc3c2)CC1` [Example 173, 2-Chloro-N-[[6-[(1-ethyl-4-piperidyl)sulfonyl]benzothiazol-2-yl]carbamoyl]benzamide], on human GHS receptor [1], the Emax was determined as 52.2% and the EC50 was 8.43 nM. On human GHS receptor [2], this compound came in with an IC50 of 76.2 nM.
Taken in the same sequence, the figures for `O=C(NC(=O)c1ccccc1Cl)Nc1nc2ccc(S(=O)(=O)C3CN(CC4CC4)C3)cc2s1` [Example 175, 2-Chloro-N-[[6-[1-(cyclopropylmethyl)azetidin-3-yl]sulfonylbenzothiazol-2-yl]carbamoyl]benzamide] were 30.1%, 22.4 nM and 64.1 nM.
For `CS(=O)(=O)c1ccc2nc(NC(=O)NC(=O)c3cc(F)c(F)cc3Cl)sc2c1` [Example 177, 2-Chloro-4,5-difluoro-N-[(6-methylsulfonylbenzothiazol-2-yl)carbamoyl]benzamide], at human GHS receptor [1], the Emax is 22.8% and the EC50 amounted to 66.4 nM. For the same compound, the IC50 at human GHS receptor [2] came to 248 nM.
With `O=C(NC(=O)c1ccccc1Cl)Nc1nc2ccc(S(=O)(=O)Cc3ccccn3)cc2s1` [Example 178, 2-Chloro-N-[[6-(pyridin-2-ylmethylsulfonyl)benzothiazol-2-yl]carbamoyl]benzamide], on human GHS receptor [1], the Emax worked out at 18.7% and the EC50 was found to be 77.7 nM. On human GHS receptor [2], this compound returned an IC50 of 108 nM.
With `CS(=O)(=O)c1ccc2nc(NC(=O)NC(=O)c3ccc(Cl)cc3Cl)sc2c1` [Example 179, 2,4-Dichloro-N-[(6-methylsulfonylbenzothiazol-2-yl)carbamoyl]benzamide], on human GHS receptor [1], the Emax worked out at 61.2% and the EC50 came out at 5.91 nM. In addition, on human GHS receptor [2], the IC50 worked out at 18.3 nM.
As to `CS(=O)(=O)c1ccc2nc(NC(=O)NC(=O)c3ccc([N+](=O)[O-])cc3Cl)sc2c1` [Example 180, 2-Chloro-N-[(6-methylsulfonylbenzothiazol-2-yl)carbamoyl]-4-nitro-benzamide], at human GHS receptor [1], the Emax came out at 5.93% and the EC50 stood at 67.3 nM. Besides, the IC50 at human GHS receptor [2] came to 127 nM.
In the case of `CS(=O)(=O)c1ccc2nc(NC(=O)NC(=O)c3cc(C(F)(F)F)ccc3Cl)sc2c1` [Example 181, 2-Chloro-N-[(6-methylsulfonylbenzothiazol-2-yl)carbamoyl]-5-(trifluoromethyl)benzamide], on human GHS receptor [1], the Emax worked out at 54.4% and the EC50 worked out at 0.633 nM. Further, the IC50 at human GHS receptor [2] is 49 nM.
`O=C(NC(=O)c1ccccc1Cl)Nc1nc2ccc(S(=O)(=O)C3CCN(CC4CC4)CC3)cc2s1` [Example 182, 2-Chloro-N-[[6-[[1-(cyclopropylmethyl)-4-piperidyl]sulfonyl]benzothiazol-2-yl]carbamoyl]benzamide]: on human GHS receptor [1], the Emax amounted to 39.6% and the EC50 came out at 25.1 nM. The same compound came in with an IC50 at human GHS receptor [2] of 8.9 nM.
As to `O=C(NC(=O)c1ccccc1Cl)Nc1nc2ccc(S(=O)(=O)C3CNC3)cc2s1` [Example 183, N-[[6-(Azetidin-3-ylsulfonyl)benzothiazol-2-yl]carbamoyl]-2-chloro-benzamide], on human GHS receptor [1], the Emax was determined as 42.1% and the EC50 worked out at 13.8 nM. Moreover, at human GHS receptor [2], the IC50 is 6.7 nM.
In the case of `CCN1CC(S(=O)(=O)c2ccc3nc(NC(=O)NC(=O)c4ccccc4Cl)sc3c2)C1` [Example 185, 2-Chloro-N-[[6-(1-ethylazetidin-3-yl)sulfonylbenzothiazol-2-yl]carbamoyl]benzamide], on human GHS receptor [1], the Emax was determined as 39.7% and the EC50 is 69.2 nM. The compound further displayed an IC50 at human GHS receptor [2] of 66.9 nM.
Turning to `O=C(NC(=O)c1ccccc1Cl)Nc1nc2ccc(S(=O)(=O)Cc3cccnc3)cc2s1` [Example 187, 2-Chloro-N-[[6-(pyridin-3-ylmethylsulfonyl)benzothiazol-2-yl]carbamoyl]benzamide], at human GHS receptor [1], the Emax turned out to be 16.1% and the EC50 came to 5.95 nM. Also, on human GHS receptor [2], the IC50 turned out to be 58.1 nM.
For `Cc1cc(CS(=O)(=O)c2ccc3nc(NC(=O)NC(=O)c4ccccc4Cl)sc3c2)no1` [Example 188, 2-Chloro-N-[[6-[(5-methyl-1,2-oxazol-3-yl)methylsulfonyl]benzothiazol-2-yl]carbamoyl]benzamide], on human GHS receptor [1], the Emax amounted to 16.4% and the concentration giving a half-maximal response (EC50) turned out to be 52.1 nM. Moreover, at human GHS receptor [2], the IC50 was 53.8 nM.
`O=C(NC(=O)c1ccccc1Cl)Nc1nc2ccc(S(=O)(=O)Cc3ncc[nH]3)cc2s1` [Example 189, 2-Chloro-N-[[6-(1H-imidazol-2-ylmethylsulfonyl)benzothiazol-2-yl]carbamoyl]benzamide]: at human GHS receptor [1], the Emax came to 20.4% and the EC50 stood at 280 nM. On human GHS receptor [2], this compound returned an IC50 of 274 nM.
Take `O=C(NC(=O)c1ccccc1Cl)Nc1nc2ccc(S(=O)(=O)CCc3ccccn3)cc2s1` [Example 190, 2-Chloro-N-[[6-(2-pyridin-2-ylethylsulfonyl)benzothiazol-2-yl]carbamoyl]benzamide]: at human GHS receptor [1], the Emax is 21.3% and the 50% effective concentration (EC50) was 82.2 nM. The compound further had an IC50 on human GHS receptor [2] of 51.9 nM.
Turning to `Cc1nc(CS(=O)(=O)c2ccc3nc(NC(=O)NC(=O)c4ccccc4Cl)sc3c2)cs1` [Example 191, 2-Chloro-N-[[6-[(2-methyl-1,3-thiazol-4-yl)methylsulfonyl]benzothiazol-2-yl]carbamoyl]benzamide], on human GHS receptor [1], the Emax is 15.5% and the EC50 was 75.2 nM. Besides, the IC50 on human GHS receptor [2] stood at 128 nM.
As for `COCCCS(=O)(=O)c1ccc2nc(NC(=O)NC(=O)c3ccccc3Cl)sc2c1` [Example 192, 2-Chloro-N-[[6-(3-methoxypropylsulfonyl)benzothiazol-2-yl]carbamoyl]benzamide], on human GHS receptor [1], the Emax stood at 23.8% and the EC50 was 51.3 nM. In addition, the IC50 at human GHS receptor [2] turned out to be 52.4 nM.

Usually EC50 stands for the concentration that produces a half-maximal response. By IC50 is commonly meant the concentration needed to halve the response being measured.
